Assay: molar heat capacity at constant pressure
Conditions: 101.33 kPa, Crystal 1, DSC

O=[N+]([O-])[O-].O=[N+]([O-])[O-].[Ca+2] [calcium nitrate]
Conditions	molar heat capacity at constant pressure [J/K/mol]
460.78 K	169.24
461 K	167.84
461.78 K	169.39
462 K	167.76
462.78 K	169.54
463 K	167.86
463.78 K	169.69
464 K	168.02
464.78 K	169.84
465 K	168.08
465.78 K	169.99
466 K	168.25
466.78 K	170.14
467 K	168.45
467.78 K	170.28
468 K	168.56
468.78 K	170.43
469 K	168.64
469.78 K	170.57
470 K	168.78
470.78 K	170.71
471 K	169.08
471.78 K	170.84
472 K	169
472.78 K	170.98
473 K	169.04
473.78 K	171.11
474 K	169.16
474.78 K	171.24
475 K	169.1
475.78 K	171.37
476 K	169.34
476.78 K	171.5
477 K	169.7
477.78 K	171.63
478 K	169.85
478.78 K	171.76
479 K	169.98
479.78 K	171.88
480 K	170.3
480.78 K	172.01
481 K	170.38
481.78 K	172.14
482 K	170.53
482.78 K	172.27
483 K	170.78
483.78 K	172.4
484 K	171.03
484.78 K	172.53
485 K	171.06
485.78 K	172.66
486 K	171.2
486.78 K	172.79
487 K	171.33
487.78 K	172.92
488 K	171.57
488.78 K	173.05
489 K	171.63
489.78 K	173.19
490 K	171.74
490.78 K	173.32
491 K	171.84
491.78 K	173.45
492 K	172.06
492.78 K	173.58
493 K	172.18
493.78 K	173.7
494 K	172.32
494.78 K	173.83
495 K	172.25
495.78 K	173.96
496 K	172.55
496.78 K	174.08
497 K	172.8
497.78 K	174.21
498 K	172.81
498.78 K	174.34
499 K	172.68
499.78 K	174.47
500 K	172.79
500.78 K	174.6
501 K	172.74
501.78 K	174.72
502 K	172.79
502.78 K	174.85
503 K	172.93
503.78 K	174.98
504 K	173.02
504.78 K	175.1
505 K	173.14
505.78 K	175.23
506 K	173.3
506.78 K	175.35
507 K	173.5
507.78 K	175.47
508 K	173.86
508.78 K	175.6
509 K	173.88
509.78 K	175.72
510 K	173.92
510.78 K	175.84
511 K	174.13
511.78 K	175.96
512 K	174.3
512.78 K	176.08
513 K	174.4
513.78 K	176.2
514 K	174.42
514.78 K	176.32
515 K	174.62
515.78 K	176.44
516 K	174.84
516.78 K	176.57
517 K	175.25
517.78 K	176.69
518 K	175.28
518.78 K	176.81
519 K	175.29
519.78 K	176.93
520 K	175.21
520.78 K	177.05
521 K	175.26
521.78 K	177.17
522 K	175.43
522.78 K	177.29
523 K	175.67
523.78 K	177.42
524 K	175.75
524.78 K	177.54
525 K	175.8
525.78 K	177.66
526 K	175.94
526.78 K	177.78
527 K	175.82
527.78 K	177.91
528 K	176.06
528.78 K	178.03
529 K	176.19
529.78 K	178.15
530 K	176.36
530.78 K	178.27
531 K	176.31
531.78 K	178.39
532 K	176.49
532.78 K	178.51
533 K	176.66
533.78 K	178.64
534 K	176.93
534.78 K	178.76
535 K	177.11
535.78 K	178.88
536 K	177.34
536.78 K	179
537 K	177.34
537.78 K	179.12
538 K	177.42
538.78 K	179.24
539 K	177.46
539.78 K	179.36
540 K	177.51
540.78 K	179.48
541 K	177.41
541.78 K	179.6
542 K	177.7
542.78 K	179.71
543 K	177.98
543.78 K	179.83
544 K	178.12
544.78 K	179.95
545 K	178.25
545.78 K	180.07
546 K	178.24
546.78 K	180.18
547 K	178.5
547.78 K	180.3
548 K	178.69
548.78 K	180.41
549 K	178.65
549.78 K	180.52
550 K	178.93
550.78 K	180.64
551 K	179.14
551.78 K	180.75
552 K	179.27
552.78 K	180.86
553 K	179.3
553.78 K	180.97
554 K	179.36
554.78 K	181.08
555 K	179.38
555.78 K	181.19
556 K	179.42
556.78 K	181.3
557 K	179.62
557.78 K	181.42
558 K	179.86
558.78 K	181.53
559 K	179.79
559.78 K	181.64
560 K	180.01
560.78 K	181.75
561 K	180.29
561.78 K	181.86
562 K	180.36
562.78 K	181.98
563 K	180.34
563.78 K	182.09
564 K	180.52
564.78 K	182.2
565 K	180.58
565.78 K	182.32
566 K	180.69
566.78 K	182.43
567 K	180.68
567.78 K	182.55
568 K	180.69
568.78 K	182.66
569 K	180.72
569.78 K	182.78
570 K	180.95
570.78 K	182.89
571 K	181.01
571.78 K	183
572 K	181.17
572.78 K	183.12
573 K	181.26
573.78 K	183.23
574 K	181.32
574.78 K	183.35
575 K	181.37
575.78 K	183.47
576 K	181.6
576.78 K	183.59
577 K	181.65
577.78 K	183.7
578 K	181.77
578.78 K	183.82
579 K	181.78
579.78 K	183.94
580 K	181.89
580.78 K	184.05
581 K	181.94
581.78 K	184.16
582 K	182.11
582.78 K	184.27
583 K	182.13
583.78 K	184.38
584 K	182.17
584.78 K	184.49
585 K	182.35
585.78 K	184.59
586 K	182.41
586.78 K	184.69
587 K	182.46
587.78 K	184.79
588 K	182.63
